For 17 molecules, activity and Percent fungal survival results are on record in article PMC8815882, “Screening the pandemic response box identified benzimidazole carbamates, Olorofim and ravuconazole as promising drug candidates for the treatment of eumycetoma” (PLoS Neglected Tropical Diseases, 2022).

This test relates to M. mycetomatis genome strain MM55. Kind of test: CLSI M38-A2 based in vitro susceptibility screening (XTT or resazurin), growth at fixed concentration. The conditions noted are these: Madurella mycetomatis; for Percent fungal survival at 100 µM: read-out: Percentage survival at 100um, 100 uM A (second replicate column). Format: cell-based, Madurella mycetomatis. For orientation: Tetrazolium dyes change colour on reduction, which living cells bring about.

Setting [1] is: mean of replicates, MM55, read-out: Percentage survival at 25um, 25 uM mean.
Where [2] appears, read: replicate A, MM55, read-out: Percentage survival at 25um, 25 um A.
The mark [3] stands for this setting: replicate B, MM55, read-out: Percentage survival at 25um, 25 uM B.
Where [4] appears, read: replicate C, MM55, read-out: Percentage survival at 25um, 25 uM C.
The mark [5] stands for this setting: mean of replicates, MM55, read-out: Percentage survival at 100um, 100 uM mean.
Where [6] appears, read: replicate 1, MM55, read-out: Percentage survival at 100um, 100 uM A.
Setting [7] is: replicate 2, MM55, read-out: Percentage survival at 100um, 100 uM A.
Where [8] appears, read: replicate 3, MM55, read-out: Percentage survival at 100um, 100 uM A.
The mark [9] stands for this setting: mean, read-out: Percentage survival at 25um, 25 uM mean.
[10] abbreviates: replicate A, read-out: Percentage survival at 25um, 25 um A.
[11] abbreviates: replicate B, read-out: Percentage survival at 25um, 25 uM B.
The mark [12] stands for this setting: replicate C, read-out: Percentage survival at 25um, 25 uM C.
The mark [13] stands for this setting: mean, read-out: Percentage survival at 100um, 100 uM mean.
The mark [14] stands for this setting: replicate (first column), read-out: Percentage survival at 100um, 100 uM A.
The mark [15] stands for this setting: replicate (second column), read-out: Percentage survival at 100um, 100 uM A.
Setting [16] is: replicate (third column), read-out: Percentage survival at 100um, 100 uM A.
Setting [17] is: mean of replicates, read-out: Percentage survival at 25um, 25 uM mean.
Setting [18] is: mean of replicates, read-out: Percentage survival at 100um, 100 uM mean.
[19] abbreviates: replicate 1, read-out: Percentage survival at 100um, 100 uM A.
Setting [20] is: replicate 2, read-out: Percentage survival at 100um, 100 uM A.
[21] abbreviates: replicate 3, read-out: Percentage survival at 100um, 100 uM A.
[22] abbreviates: mean of three replicates, read-out: Percentage survival at 25um, 25 uM mean.
[23] abbreviates: mean of three replicates, read-out: Percentage survival at 100um, 100 uM mean.
Setting [24] is: replicate 1, read-out: Percentage survival at 100um, 100 uM A (first replicate column).
The mark [25] stands for this setting: replicate 3, read-out: Percentage survival at 100um, 100 uM A (third replicate column).

Structures are written as SMILES. Like-named read-outs stand apart in the source and are kept apart here.

With `CC(C)CCN1C(=O)C(C2=NS(=O)(=O)c3cc(NS(C)(=O)=O)ccc3N2)=C(O)[C@@H]2[C@H]3CC[C@H](C3)[C@@H]21` [MMV1782220], the activity at 25 µM amounted to 83.6% under setting [1], 78.4% under setting [2], 83.3% under setting [3] and 89.2% under setting [4]. The activity at 100 µM was 113% under setting [5], 140% under setting [6], 71% under setting [7] and 127% under setting [8].

As to `COc1cc(NCc2ccc3nc(N)nc(N)c3c2C)cc(OC)c1OC` [MMV1580173], the activity at 25 µM under setting [9] was determined as 73.6%, the activity at 25 µM under setting [10] worked out at 96.5%, the activity at 25 µM under setting [11] stood at 46.2% and the activity at 25 µM under setting [12] stood at 78.3%. Also, the activity at 100 µM under setting [13] stood at 55.4%, the activity at 100 µM under setting [14] turned out to be 74.1%, the activity at 100 µM under setting [15] amounted to 4.19% and the activity at 100 µM under setting [16] is 88%.

For `C[C@H]1[C@@H](c2cccc(C(F)(F)F)c2)OC(=O)N1C(=O)NCc1cncc2ccccc12` [MMV1593533], the activity at 25 µM runs as follows: under setting [9], 50%; under setting [10], 54.1%; under setting [11], 42.5%; under setting [12], 53.3%. The activity at 100 µM under setting [13] is 36.1%, the activity at 100 µM under setting [14] was 6.17%, the activity at 100 µM under setting [15] came to 44.6% and the activity at 100 µM under setting [16] was 57.6%.

Consider `C=C[C@]1(C)C[C@@H](OC(=O)CS[C@@H]2C[C@H]3CC[C@@H](C2)N3C)[C@]2(C)[C@H](C)CC[C@]3(CCC(=O)[C@H]32)[C@@H](C)[C@@H]1O` [MMV1633674], for which the activity at 25 µM by setting is: under setting [17], 89.3%; under setting [10], 84.6%; under setting [11], 97.9%; under setting [12], 85.5%. Besides, the activity at 100 µM is 48.4% under setting [18], -3.26% under setting [19], 61.3% under setting [20] and 87% under setting [21].

`COc1cc2c(O)c3c(c(-c4ccc5c(c4)OCO5)c2cc1OC)C(=O)OC3` [MMV102270]: the activity at 25 µM reads like this: under setting [22], 80.6%; under setting [10], 79.5%; under setting [11], 84.8%; under setting [12], 77.5%. Moreover, the activity at 100 µM by setting is: under setting [23], 107%; under setting [24], 93.7%; under setting [25], 153%. Also, the Percent fungal survival at 100 µM (replicate 2) was determined as 74.4%.

Regarding `Fc1ccc2c(/C=C/c3nnn[nH]3)c[nH]c2c1` [MMV1578563], the activity at 25 µM worked out at 87.2% under setting [17], 86.3% under setting [10], 93.6% under setting [11] and 81.6% under setting [12]. Also, the activity at 100 µM worked out at 98.8% under setting [18], 96% under setting [19], 91.8% under setting [20] and 109% under setting [21].

As to `CC(Oc1ccc(Cl)cc1Cl)C(=O)NCc1ccc2c(c1)OCO2` (stereo not shown) [MMV1578925], the activity at 25 µM is, setting by setting: under setting [9], 48.3%; under setting [10], 53.9%; under setting [11], 36.1%; under setting [12], 54.9%. Besides, the activity at 100 µM runs as follows: under setting [13], 70.2%; under setting [14], 65.3%; under setting [15], 69%; under setting [16], 76.3%.

Consider `C[Si]1(C)CCN(Cc2cc(-c3ccc(Cl)cc3)n(-c3ccc(Cl)cc3)n2)CC1` [MMV1580843], for which the activity at 25 µM under setting [1] was 67.7%, the activity at 25 µM under setting [2] worked out at 56.5%, the activity at 25 µM under setting [3] came to 86.3% and the activity at 25 µM under setting [4] amounted to 60.2%. Moreover, the activity at 100 µM amounted to 57.4% under setting [5], 52% under setting [6], 70.7% under setting [7] and 49.4% under setting [8].

As for `NC(=O)C(c1ccccc1)(c1ccccc1)[C@H]1CCCN(CCc2ccc3c(c2)CCO3)C1` [MMV1782412], the activity at 25 µM by setting is: under setting [1], 101%; under setting [2], 130%; under setting [3], 101%; under setting [4], 70.7%. In addition, the activity at 100 µM amounted to 68.7% under setting [5], 67.1% under setting [6], 68% under setting [7] and 71% under setting [8].

Consider `COc1ccc(OCc2ccc(COc3c(Cl)cccc3Cl)cc2)c(Cl)c1` [MMV1580485], for which the activity at 25 µM runs as follows: under setting [1], 89.3%; under setting [2], 92.6%; under setting [3], 89.4%; under setting [4], 85.7%. Besides, the activity at 100 µM under setting [5] turned out to be 77.9%, the activity at 100 µM under setting [6] amounted to 89.9%, the activity at 100 µM under setting [7] came out at 70.7% and the activity at 100 µM under setting [8] is 73.2%.

Take `CCCC1(C2CC2)c2cc(Cl)ccc2NC(=O)N1C` (stereo not shown) [MMV1782113]: the activity at 25 µM by setting is: under setting [1], 68.5%; under setting [2], 67.5%; under setting [3], 76.8%; under setting [4], 61.2%. The activity at 100 µM by setting is: under setting [5], 56.1%; under setting [6], 52.9%; under setting [7], 56.4%; under setting [8], 58.9%.

Regarding `NNC(=O)c1ccncc1` [MMV002169], the activity at 25 µM under setting [22] came out at 85.6%, the activity at 25 µM under setting [10] was 90.1%, the activity at 25 µM under setting [11] turned out to be 80.7% and the activity at 25 µM under setting [12] was 85.9%. In addition, the activity at 100 µM under setting [23] was 85.3%, the activity at 100 µM under setting [24] is 84.8% and the activity at 100 µM under setting [25] was 89.3%. Moreover, under “replicate 2”, the Percent fungal survival at 100 µM is 81.9%.

Take `Cc1c(OCC(F)(F)F)ccnc1C[S+]([O-])c1nc2ccccc2[nH]1` (stereo not shown) [MMV001438]: the activity at 25 µM under setting [22] stood at 95.7%, the activity at 25 µM under setting [10] was 79.3%, the activity at 25 µM under setting [11] was 123% and the activity at 25 µM under setting [12] came out at 84.8%. The activity at 100 µM runs as follows: under setting [23], 55.3%; under setting [24], 41.9%; under setting [25], 71.8%. Moreover, the Percent fungal survival at 100 µM (replicate 2) is 52.1%.

In the case of `O=C(Nc1ccc(N2CCN(C(=O)c3ccccc3)CC2)cc1)c1ccc2c(c1)OCO2` [MMV1580505], the activity at 25 µM reads like this: under setting [1], 104%; under setting [2], 103%; under setting [3], 109%; under setting [4], 101%. Besides, the activity at 100 µM by setting is: under setting [5], 96.7%; under setting [6], 102%; under setting [7], 96.8%; under setting [8], 91.4%.

Regarding `CC(C)(C)NC(=O)N[C@H](C(=O)N1C[C@H]2[C@@H]([C@H]1C(=O)NC(CC1CCC1)C(=O)C(N)=O)C2(C)C)C(C)(C)C` (stereo partly shown) [MMV1580497], the activity at 25 µM by setting is: under setting [22], 88.1%; under setting [10], 89.4%; under setting [11], 98%; under setting [12], 76.8%. The activity at 100 µM was 98.5% (first replicate column, read-out: Percentage survival at 100um, 100 uM A); 93.6% under setting [23]; 87.9% (second replicate column, read-out: Percentage survival at 100um, 100 uM A); 94.6% (third replicate column, read-out: Percentage survival at 100um, 100 uM A).

As for `O=C(NC(=O)N1CCCc2ccccc21)c1ccc(Cl)cc1Cl` [MMV1782218], the activity at 25 µM under setting [9] amounted to 77.7%, the activity at 25 µM under setting [10] amounted to 84.5%, the activity at 25 µM under setting [11] worked out at 82% and the activity at 25 µM under setting [12] came out at 66.6%. Also, the activity at 100 µM amounted to 59.4% under setting [13], 65.3% under setting [14], 55.7% under setting [15] and 57.2% under setting [16].

In the case of `Cc1cc(CCCOc2c(C)cc(-c3noc(C(F)(F)F)n3)cc2C)on1` [MMV690467], the activity at 25 µM under setting [1] came to 115%, the activity at 25 µM under setting [2] was found to be 152%, the activity at 25 µM under setting [3] stood at 84.5% and the activity at 25 µM under setting [4] amounted to 108%. Also, the activity at 100 µM reads like this: under setting [5], 79.3%; under setting [6], 70.9%; under setting [7], 103%; under setting [8], 64.3%.
